From patent US5716943A, “Phosphinic acid derivatives with metallopeptidase inhibitory activity” (Zambon Group. S.p.A., priority 1995, dated 1998)

What was measured:
ACE = target: T1, ACE (Oryctolagus cuniculus, UniProt P12822); experiment: ACE-inhibitory activity, FAPGG substrate, absorbance at 340 nm; type: biochemical; settings: ACE purified by lung rabbit; FAPGG 0.8 mM; 37° C.; compounds of formula I tested as lithium salts
T1 construct: purchased SIGMA; host or cells: rabbit lung
T1 sequence (P12822 34-1310): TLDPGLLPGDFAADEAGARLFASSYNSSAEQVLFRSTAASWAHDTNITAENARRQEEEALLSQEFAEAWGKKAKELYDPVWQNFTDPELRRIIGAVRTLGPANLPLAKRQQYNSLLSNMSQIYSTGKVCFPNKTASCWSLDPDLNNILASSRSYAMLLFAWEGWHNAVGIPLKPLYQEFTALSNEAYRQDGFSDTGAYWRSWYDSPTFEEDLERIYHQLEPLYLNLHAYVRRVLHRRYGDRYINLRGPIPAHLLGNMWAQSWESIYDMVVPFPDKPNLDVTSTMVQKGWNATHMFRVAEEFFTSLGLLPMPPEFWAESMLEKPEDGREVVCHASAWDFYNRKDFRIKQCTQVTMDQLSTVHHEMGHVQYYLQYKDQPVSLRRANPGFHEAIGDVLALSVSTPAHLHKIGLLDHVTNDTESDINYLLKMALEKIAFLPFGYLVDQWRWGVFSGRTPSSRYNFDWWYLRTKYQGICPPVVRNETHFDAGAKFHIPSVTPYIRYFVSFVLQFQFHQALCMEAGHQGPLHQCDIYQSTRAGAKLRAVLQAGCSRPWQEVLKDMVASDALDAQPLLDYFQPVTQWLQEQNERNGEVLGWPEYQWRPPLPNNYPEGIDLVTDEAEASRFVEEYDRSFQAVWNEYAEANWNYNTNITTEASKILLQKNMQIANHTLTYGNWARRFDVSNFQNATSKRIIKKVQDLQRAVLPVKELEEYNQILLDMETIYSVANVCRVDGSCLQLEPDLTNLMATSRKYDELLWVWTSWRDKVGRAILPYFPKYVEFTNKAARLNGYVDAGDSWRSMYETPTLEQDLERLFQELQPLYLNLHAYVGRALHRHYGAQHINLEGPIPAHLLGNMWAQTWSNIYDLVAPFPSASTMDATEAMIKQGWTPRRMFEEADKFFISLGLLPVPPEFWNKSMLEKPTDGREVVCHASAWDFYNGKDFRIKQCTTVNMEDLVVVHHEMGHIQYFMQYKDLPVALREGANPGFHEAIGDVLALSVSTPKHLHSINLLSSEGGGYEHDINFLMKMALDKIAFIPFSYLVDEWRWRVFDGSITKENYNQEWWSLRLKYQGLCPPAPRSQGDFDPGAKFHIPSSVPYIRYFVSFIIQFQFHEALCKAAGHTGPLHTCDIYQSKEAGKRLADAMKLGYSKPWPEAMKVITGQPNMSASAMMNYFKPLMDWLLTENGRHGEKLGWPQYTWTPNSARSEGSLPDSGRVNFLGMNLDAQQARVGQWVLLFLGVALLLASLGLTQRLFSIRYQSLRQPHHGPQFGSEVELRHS
Method: b) ACE-inhibitory activity
50 μM of ACE (250 mU/ml purified by lung rabbit, EC 3.4.15.1 SIGMA) were preincubated with 50 μl of the compound of formula I or of the comparison compound in thermostated cuvettes at 37° C.
The reaction was started by adding furylacryloylphenylalanylglycylglycine 0.8 mM (FAPGG-SIGMA).
Contemporaneously, by using a Beckman DU-50 spectrophotometer provided with a program for calculating delta A/minutes and regression coefficients of the enzyme kinetics curves, the absorbance at 340 10^-9 m was recorded in continuo for 5 minutes.
The percentage of enzyme inhibition in the preparations treated with the compounds of formula I or with the comparison compounds with respect to the untreated preparations was expressed as IC50 (nM) value.
(§1) The compounds of formula I were tested in the form of lithium salts.

NEP = target: T2, NEP (Rattus norvegicus, UniProt P07861); experiment: NEP-inhibitory activity in rat kidney cortex membranes, [3H][Leu5]-enkephaline substrate; type: biochemical; settings: [3H][Leu5]-enkephaline 15 nM, 20 minutes at 30° C., pH 7.4, compounds of formula I tested as lithium salts
T2 construct: evaluated in rat kidney cortex membranes; from tissue; host or cells: kidney cortex membranes of male Sprague-Dawley rats
T2 sequence (P07861 1-750): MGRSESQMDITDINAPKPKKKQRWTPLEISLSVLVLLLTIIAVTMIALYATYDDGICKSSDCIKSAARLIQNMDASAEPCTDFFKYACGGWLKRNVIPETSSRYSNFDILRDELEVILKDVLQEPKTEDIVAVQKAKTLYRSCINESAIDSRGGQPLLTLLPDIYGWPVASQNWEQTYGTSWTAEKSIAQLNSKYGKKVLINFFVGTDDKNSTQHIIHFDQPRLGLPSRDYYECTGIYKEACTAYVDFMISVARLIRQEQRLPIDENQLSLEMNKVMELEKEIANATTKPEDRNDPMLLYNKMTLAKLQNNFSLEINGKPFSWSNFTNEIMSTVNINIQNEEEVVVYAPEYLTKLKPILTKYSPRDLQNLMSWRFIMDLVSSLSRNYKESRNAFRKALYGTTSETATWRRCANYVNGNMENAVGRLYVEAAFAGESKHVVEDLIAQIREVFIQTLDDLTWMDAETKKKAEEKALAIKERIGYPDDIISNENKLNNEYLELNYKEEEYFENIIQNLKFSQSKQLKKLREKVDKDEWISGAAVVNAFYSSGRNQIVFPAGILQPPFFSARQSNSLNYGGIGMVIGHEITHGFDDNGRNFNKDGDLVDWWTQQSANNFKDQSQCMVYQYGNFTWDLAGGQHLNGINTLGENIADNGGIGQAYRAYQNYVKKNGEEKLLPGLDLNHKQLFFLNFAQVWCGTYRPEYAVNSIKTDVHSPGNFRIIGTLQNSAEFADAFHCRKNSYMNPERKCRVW
Method: a) NEP-inhibitory activity
The NEP-inhibitory activity was evaluated in rat kidney cortex membranes prepared according to the procedure described by T. Maeda et al. in Biochim biophys. Acta 1983, 731 (1), 115-120.
By working at 0°-4° C. kidneys were removed from male Sprague-Dawley rats weighing approximately 300 g.
Kidney cortex was carefully dissected, finely minced and suspended in a homogenization buffer (10 mM sodium phosphate pH 7.4 containing 1 mM MgCl2, 30 mM NaCl, 0.02% NaN3) 1:15 weight/volume.
The tissue was then homogenized for 30 seconds by using an Ultra-Turrax homogenizer.
Approximately 10 ml of homogenate were layered over 10 ml of sucrose (41% weight/volume) and centrifuged at 31200 rpm for 30 minutes at 4° C. in a fixed angle rotor.
The membranes were collected from the buffer/sucrose interface, washed twice with 50 mM TRIS/HCl buffer (pH 7.4) and resuspended into the same buffer for storage.
The membranes were stored in small aliquots at -80° C. until use.
The NEP-inhibitory activity was evaluated according to the method described by C. Llorens et al., in Eur. I. Pharmacol., 69, (1981), 113-116, as reported hereinafter.
Aliquots of the membrane suspension prepared as above described (concentration 5 μg/ml of proteins) were preincubated in the presence of an aminopeptidase inhibitor (Bestatin--1 mM) for 10 minutes at 30° C.
[^3 H][Leu^5 ]-enkephaline (15 nM) and buffer TRIS/HCl pH 7.4 (50 mM) were added in order to obtain a final volume of 100 μl.
Incubation (20 minutes at 30° C.) was stopped by adding HCl 0.1 M (100 μl).
The formation of the metabolite [^3 H]Tyr-Gly-Gly was quantified, after separation of the unreacted substrate by chromatography on polystirene columns (Porapak Q), by measuring the relative radioactivity through liquid scintillation.
The percentage of inhibition of the metabolite formation in the membrane preparations treated with the compounds of formula I and with the comparative compounds with respect to the untreated membrane preparations was expressed as IC50 (nM) value.
as §1

| ACE-inhibitory activity IC50 (nM) (ACE) | IC50 (NEP) | NEP-inhibitory activity IC50 (nM) (NEP) | IC50 (ACE) | SMILES |
| --- | --- | --- | --- | --- |
| not active | 160 nM | – | – | COCCOCC(CC1(C(=O)N[C@H]2CC[C@@H](C(=O)O)CC2)CCCC1)C(=O)O (relative stereo) [Candoxatrilat, 3-[1-[(Cis-4-carboxycyclohexyl)carbamoyl]cyclopentyl]-2-(2-methoxyethoxymethyl)-propionic acid, reference compound] |
| – | – | not active | – | C[C@H](CS)C(=O)N1CCC[C@H]1C(=O)O [Captopril, reference compound] |
| – | 36 nM | – | 6.4 nM | CC(C)CC(CP(=O)(O)CNC(=O)OCc1ccccc1)C(=O)N[C@@H](Cc1ccc(-c2ccccc2)cc1)C(=O)O (stereo partly drawn) [Compound 2, N-[3-[(benzyloxycarbonylaminomethyl)(hydroxy)phosphinyl]-2-isobutyl-propionyl]-(1,1'-biphenyl-4-yl)-L-alanine] |
| – | 252 nM | – | 30 nM | O=C(NCP(=O)(O)CC(Cc1ccccc1)C(=O)N[C@@H](Cc1ccc(-c2ccccc2)cc1)C(=O)O)OCc1ccccc1 (stereo partly drawn) [Compound 3, N-[3-[(benzyloxycarbonylaminomethyl)(hydroxy)phosphinyl]-2-benzyl-propionyl]-(1,1'-biphenyl-4-yl)-L-alanine] |
| – | 335 nM | – | 12 nM | O=C(NCP(=O)(O)CC(Cc1cccs1)C(=O)N[C@@H](Cc1ccc(-c2ccccc2)cc1)C(=O)O)OCc1ccccc1 (stereo partly drawn) [Compound 4, N-[3-[(benzyloxycarbonylaminomethyl)(hydroxy)phosphinyl]-2-(2-thienylmethyl)propionyl]-(1,1'-biphenyl-4-yl)-L-alanine] |
| – | 48.5 nM | – | 25 nM | CC(C)CC(CP(=O)(O)CNC(=O)OCc1ccccc1)C(=O)N[C@@H](Cc1ccc(-c2nccs2)cc1)C(=O)O (stereo partly drawn) [Compound 5, N-[3-[(benzyloxycarbonylaminomethyl)(hydroxy)phosphinyl]-2-isobutyl-propionyl]-[4-(2-thiazolyl)-phenyl]-L-alanine] |
